≈ marks a conversion by molar mass, not a printed value.
Tests used:
in vitro [1] = details: plasma
physchem [2] = details: aqueous, pH 7.4
physchem [3] = details: octanol/aqueous phosphate buffered saline, pH 7.4
in vivo [4] = details: Sprague-Dawley, rat, po, 5 mg/kg
in vivo [5] = details: mouse, po, 5 mg/kg
in vivo [6] = details: Sprague-Dawley, rat, po, 5 mg/kg; remark: listed apart in the source
in vitro [7] = details: mouse, plasma
in vitro [8] = details: rat, plasma
in vitro [9] = details: human, plasma

fraction unbound (in vitro [1])	solubility (physchem [2])	logD at 1 h (physchem [3])	bioavailability (in vivo [4])	Cmax (in vivo [5])	Cmax (in vivo [6])	fraction unbound (in vitro [7])	fraction unbound (in vitro [8])	fraction unbound (in vitro [9])	SMILES
0.3	630 µg/mL (≈ 2360 µM)	2.2							O=C(Nc1ccncc1)c1c(Cl)cccc1Cl
			105%	1600 nM	2500 nM	0.04	0.04	0.05	O=C(Nc1ccnc(NC(=O)C2CC2)c1)c1c(Cl)cccc1Cl

Source: ChEMBL document CHEMBL2417497, “Lead identification of novel and selective TYK2 inhibitors” (Eur J Med Chem, 2013)
